Molecules are shown by their SMILES. Like-named read-outs stand apart in the source and are kept apart here. A value given as a limit tells only on which side of the number the result lay.

The subject of data set [1] is human leukemia cells MV411. Nature of the data set: In vivo pharmacodynamic study in MV411 acute myeloid leukemia xenograft mouse model. Further details: species or system BABL/c Nude mouse. Conditions: for weight loss in mice: once daily by oral gavage. How it is done: The human leukemia cells MV411 (Cell Bank, Chinese Academy of Sciences) used in this experiment were cultured in an IMDM culture medium supplemented with 10% FBS in an incubator containing CO2 at 37 °C. Before the cells were continuously sub-cultured to the tenth generation, MV411 cells in the logarithmic growth phase were used, and the cell concentration was adjusted to 1 × 10^8 cells/mL with a serum-free culture medium. Each BABL/c Nude mouse (Jiangsu GemPharmatech Co., Ltd., female, 4-6 weeks old, 14-16 g) was inoculated with 100 µL of the cell suspension by subcutaneous injection on the right dorsal side (near the axilla) under sterile conditions. When the mean tumor volume of the tumor-bearing mice reached approximately 100 mm^3, the mice were randomly divided into groups, with the tumor volume in each group being roughly the same. The day of grouping and administration was defined as day 0. The animals in each treatment group were given a compound once daily by oral gavage at 15 mg/kg, 30 mg/kg, or 60 mg/kg. The body weight and tumor volume of the animals were measured every other day.
Experimental indicator: The anti-tumor efficacy of the compounds was evaluated using the relative tumor growth inhibition rate (TGI). Tumor weight TGI (%) = {1 - [(final average tumor weight of experimental group)/(final average tumor weight of control group of tumor-bearing mice without administration)]} × 100%. Tumor volume TGI (%) = [1 - relative tumor volume of experimental group/relative tumor volume of control group of tumor-bearing mice without administration] × 100%.

Data set [2] relates to KG-1 cells. Nature of the data set: Antiproliferative activity against KG-1 cells (CCK8). The class given is cell-based. Conditions: Homo sapiens, 72 hours. Put shortly: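 Cells seeded at 5000/well in RPMI + 10% FBS, grown 24 h at 37 °C/5% CO2, then exposed to a 9-point dilution series (triplicate wells) for 72 h. Viability read by CCK8; IC50 calculated from growth inhibition.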

Data set [3] deals with MV4-11. Nature of the data set: Antiproliferative activity against tumor cells (CCK8), MV4-11. Conditions: Homo sapiens, MV4-11 cells, 72 hours. The class given is cell-based. How it is done: (§1) U937, MOLM-13, and MV4-11 cells (ATCC) in the logarithmic growth phase were separately diluted in a culture medium and plated onto 96-well plates at 5000 cells/well, and the plates were incubated in an incubator at 37 °C with 5% CO2 for 24 hours. 10 mM stock solutions of the compounds in DMSO were prepared and diluted with the culture medium to set 9 concentration gradients. Three replicate wells were set for each concentration. After compound addition, the plates were incubated in an incubator at 37 °C with 5% CO2 for 72 hours. The cell proliferation was assessed using the CCK8 method. The cell growth inhibition IC50 values of the compounds were determined using an enzyme labeling method. The IC50 values were calculated using GraphPad Prism 7 software.
(§2) The antiproliferative activity of the compounds against the tumor cells is shown in Table 3, where A represents IC50 < 1 nM, B represents 1 ≤ IC50 < 10 nM, C represents 10 nM ≤ IC50 < 100 nM, D represents 100 nM ≤ IC50 < 1000 nM, and E represents IC50 ≥ 1000 nM. Table 3. The antiproliferative activity of compounds against tumor cells

Data set [4] relates to U937. As to the kind of experiment: Antiproliferative activity against tumor cells (CCK8), U937. In kind it is cell-based. The settings on record: Homo sapiens, U-937, 72 hours. How it is done:
as §1, §2

For data set [5], the target named is T1, GSPT1 protein (Homo sapiens, UniProt P15170+Q96SW2).
T1 construct: host or cells: KG-1 cells
T1 sequence (P15170 whole entry): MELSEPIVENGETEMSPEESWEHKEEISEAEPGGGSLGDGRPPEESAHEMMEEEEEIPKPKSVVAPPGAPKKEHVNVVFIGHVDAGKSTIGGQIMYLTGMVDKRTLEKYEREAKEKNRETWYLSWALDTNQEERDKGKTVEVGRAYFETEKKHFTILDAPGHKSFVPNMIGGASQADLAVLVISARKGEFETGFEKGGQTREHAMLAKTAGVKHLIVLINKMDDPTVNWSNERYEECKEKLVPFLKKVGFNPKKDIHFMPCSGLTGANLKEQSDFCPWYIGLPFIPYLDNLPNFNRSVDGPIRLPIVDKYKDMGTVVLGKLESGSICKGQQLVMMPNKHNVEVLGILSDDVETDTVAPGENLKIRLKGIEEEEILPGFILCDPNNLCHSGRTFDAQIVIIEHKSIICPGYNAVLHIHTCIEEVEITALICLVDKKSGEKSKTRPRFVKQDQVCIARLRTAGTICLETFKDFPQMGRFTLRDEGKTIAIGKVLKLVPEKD
T1 sequence (Q96SW2 whole entry): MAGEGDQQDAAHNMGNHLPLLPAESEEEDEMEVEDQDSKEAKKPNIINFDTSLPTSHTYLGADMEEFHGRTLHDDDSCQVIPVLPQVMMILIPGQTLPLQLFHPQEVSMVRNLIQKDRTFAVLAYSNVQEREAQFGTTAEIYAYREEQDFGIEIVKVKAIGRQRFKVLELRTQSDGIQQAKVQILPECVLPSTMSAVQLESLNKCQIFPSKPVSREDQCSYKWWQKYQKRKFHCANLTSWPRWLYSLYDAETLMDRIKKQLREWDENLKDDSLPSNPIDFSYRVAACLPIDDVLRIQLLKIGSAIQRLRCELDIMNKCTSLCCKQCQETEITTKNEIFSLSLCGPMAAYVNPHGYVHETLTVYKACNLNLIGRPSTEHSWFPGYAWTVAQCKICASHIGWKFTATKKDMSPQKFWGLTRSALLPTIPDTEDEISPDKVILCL
T1 sequence (Q16531 whole entry partner): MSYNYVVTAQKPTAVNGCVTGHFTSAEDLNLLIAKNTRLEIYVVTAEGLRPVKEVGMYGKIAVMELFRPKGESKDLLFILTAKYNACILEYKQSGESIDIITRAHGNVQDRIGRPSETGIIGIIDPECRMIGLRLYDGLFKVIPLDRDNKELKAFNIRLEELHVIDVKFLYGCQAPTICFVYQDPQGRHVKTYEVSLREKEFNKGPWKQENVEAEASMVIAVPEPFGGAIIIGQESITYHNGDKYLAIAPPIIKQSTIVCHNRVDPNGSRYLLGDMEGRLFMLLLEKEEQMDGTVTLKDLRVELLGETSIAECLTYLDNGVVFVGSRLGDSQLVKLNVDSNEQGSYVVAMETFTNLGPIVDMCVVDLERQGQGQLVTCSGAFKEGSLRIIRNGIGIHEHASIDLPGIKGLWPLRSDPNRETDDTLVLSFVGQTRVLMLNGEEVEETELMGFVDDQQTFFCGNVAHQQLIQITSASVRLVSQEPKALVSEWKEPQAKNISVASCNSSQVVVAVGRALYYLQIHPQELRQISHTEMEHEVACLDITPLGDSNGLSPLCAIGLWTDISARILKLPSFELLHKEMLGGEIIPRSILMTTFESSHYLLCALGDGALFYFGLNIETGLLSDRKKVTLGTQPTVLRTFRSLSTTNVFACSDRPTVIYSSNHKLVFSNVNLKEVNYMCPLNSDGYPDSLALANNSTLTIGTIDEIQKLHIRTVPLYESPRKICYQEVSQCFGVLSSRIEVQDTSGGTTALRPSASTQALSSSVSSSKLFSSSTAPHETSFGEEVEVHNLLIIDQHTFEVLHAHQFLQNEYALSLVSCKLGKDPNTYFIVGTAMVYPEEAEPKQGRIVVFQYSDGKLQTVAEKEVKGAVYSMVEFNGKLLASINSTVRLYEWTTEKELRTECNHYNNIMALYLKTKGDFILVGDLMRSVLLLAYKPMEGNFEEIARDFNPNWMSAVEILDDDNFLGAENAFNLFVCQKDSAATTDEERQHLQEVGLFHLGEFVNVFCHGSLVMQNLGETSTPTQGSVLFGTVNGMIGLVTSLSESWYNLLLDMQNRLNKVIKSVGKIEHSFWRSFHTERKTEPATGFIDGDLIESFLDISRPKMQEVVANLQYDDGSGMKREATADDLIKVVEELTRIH
Nature of the data set: Degradation of GSPT1 in KG-1 cells (Western blot). In kind it is cell-based. Details: percent GSPT1 degradation: dose or concentration left out as unconfirmed. Conditions: for percent GSPT1 degradation at 0.2 µM: compound concentration 200 nM.

Data set [6] is described as follows: In vivo pharmacokinetic study in rats. The settings on record: rat; for AUC(0-inf) / AUC(0-t) / C0 / Vd / clearance / half-life / Cmax / Tmax: male, SD, plasma; for F: PO 10mg/kg; for exposure level relative to CC-90009: administered orally.
Description: (§3) Sample collection and preparation: After SPF SD rats (male, 210-230 g, 42-48 days, RILD Liver) in a good growth state were dosed intravenously at 2 mg/kg and orally at 10 mg/kg, blood samples were collected via the orbit at different blood collection time points and transferred to centrifuge tubes containing an anticoagulant; the intravenous blood collection time points were 0.08 hours, 0.25 hours, 0.5 hours, 1 hour, 2 hours, 4 hours, 6 hours, 8 hours, and 24 hours, and the oral blood collection time points were 0.25 hours, 0.5 hours, 1 hour, 2 hours, 4 hours, 6 hours, 8 hours, and 24 hours. The blood samples were immediately centrifuged at 4 °C and 8000 rpm for 10 minutes, and the plasma was collected and stored in an ultra-low-temperature freezer at -80 °C until it was analyzed by LC-MS/MS. Pharmacokinetic data analysis: Pharmacokinetic parameters of the compounds were calculated using pharmacokinetic software in a non-compartmental model. The peak plasma concentration (Cmax) and the time to reach the peak plasma concentration (Tmax) were taken as observation values. Parameters such as the half-life T1/2, the areas under the plasma concentration-time curve AUClast and AUCinf, the apparent volume of distribution Vss, and the clearance rate CL were determined through regression analysis of the linear terminal portion of the logarithmic plasma concentration-time curve and the linear trapezoidal rule.
Data set [7] is described as follows: Metabolic stability in in vitro rat liver microsomes. The settings on record: for half-life / microsomal CLint: rat.
Description: (§4) 10 mM stock solutions of the test compounds in DMSO were prepared, diluted with acetonitrile and then with PBS, and vortexed, with the DMSO content controlled at 0.1%. The dilute working solutions (10 µL) were incubated with 65 µL of a liver microsome system (30 µL of 100 mM PBS, 25 µL of 20 mM MgCl2, and 10 µL of 5 mg/mL RLMs) and preheated at 37 °C for 5 min. 25 µL of 4 mM NADPH was added to start a reaction. Samples were taken at different time points (0 min, 5 min, 15 min, 30 min, 60 min, and 120 min), and an acetonitrile solution containing an internal standard was added to stop the reaction. After vortexing and centrifugation, the supernatants were collected and analyzed by LC-MS/MS, and the half-lives and clearance rates were calculated.
Data set [8] has as its system MOLM-13. As to the kind of experiment: Antiproliferative activity against tumor cells (CCK8), MOLM-13. The class given is cell-based. Conditions: Homo sapiens, MOLM-13 cells, 72 hours. As to the method: as §1, §2
Data set [9] is described as follows: in vitro. The settings on record: rat, microsomes.
Description: as §4
Data set [10] is described as follows: in vivo. Conditions: male, SD, rat.
Description: as §3
For data set [11] the following is noted: male, SD, rat, in vivo, po, 10 mg/kg.
Description: as §3

For `O=C1CCC(N2Cc3cc(CNC(=O)C4=Cc5cc(OC(F)(F)F)ccc5OC4)ccc3C2=O)C(=O)N1` (centres unmarked) [Compound A-10, N-((2-(2,6-Dioxopiperidin-3-yl)-1-oxoisoindolin-5-yl)methyl)-6-trifluoromethoxy-2H-chromene-3-carboxamide], the “weight loss in mice” value in data set [1] was “no significant weight loss”. In addition, the IC50 (usually the midpoint of a concentration-inhibition curve) in data set [2] fell in the range of 10 to 100 nM. Further, in data set [3], the IC50 lay in the range of 10 to 100 nM. The same molecule had a half-maximal inhibitory concentration (IC50) in [4] of 1 to 10 nM. For the same molecule, the percent GSPT1 degradation in [5] (KG-1, 4 h, read-out: GSPT1 degradation) is greater than 80%. For the same molecule, the “degradation of GSPT1 in KG-1 and MV4-11 cells” value in [5] (KG-1 and MV4-11 cells, FIGs. 1 and 2) is “concentration-dependent and time-dependent”. In addition, the “percentage of degradation of GSPT1 protein” value in data set [5] (KG-1 cells, 200 nM, 4 hours) was “higher than 80%”. For the same molecule, in data set [6] (iv, 2 mg/kg), the AUC(0-inf) (commonly the area under the concentration-time curve extrapolated to infinity) was found to be 4350 ± 1200 ng·h/mL; the AUC(0-t) (commonly the area under the concentration-time curve up to a stated or last time point) was 4310 ± 1200 ng·h/mL; the C0 is 16700 ± 4330 ng/mL; the Vd (in general, the apparent volume that relates the amount in the body to the concentration in plasma or blood) amounted to 0.42 ± 0.13 L/kg. In data set [6] (iv, 2 mg/kg), the clearance (as a rule, a measure of how efficiently the substance is removed, as volume per time) came to 8.1 ± 2.5 mL/min/kg and the half-life – broadly, the time needed for the level to fall by half in the phase considered – was 1.53 ± 0.29 h. In data set [6] (po, 10 mg/kg), the AUC(0-inf) was determined as 4980 ± 2740 ng·h/mL; the area under the curve AUC(0-t) was determined as 4950 ± 2770 ng·h/mL; the concentration peaked (Cmax) at 3460 ± 1540 ng/mL; the Tmax (in general, the time at which the peak concentration occurs) is 0.33 ± 0.14 h. In data set [6] (po, 10 mg/kg), this molecule showed a half-life of 3.03 ± 0.63 h. For the same molecule, in data set [6], the F was 22.9±12.6% and the “exposure level relative to CC-90009” value was “nearly three times”. Besides, in data set [6] (intravenous injection), the “clearance rate relative to CC-90009” value is reported as “one third” and the “plasma drug exposure level relative to CC-90009” value was “nearly four times”. Moreover, in data set [7], the half-life stood at 2.77 h and the microsomal CLint (usually the rate of metabolic loss divided by the concentration) is 8.35 µL/min/mg. Further, in [8], the 50% inhibitory concentration (IC50) fell in the range of 1 to 10 nM.

For `O=C1CCC(N2Cc3c(ccc(CNC(=O)C4=Cc5cc(OC(F)(F)F)ccc5OC4)c3F)C2=O)C(=O)N1` (centres unmarked) [Compound A-42, N-((2-(2,6-Dioxopiperidin-3-yl)-4-fluoro-1-oxoisoindolin-5-yl)methyl)-6-(trifluoromethoxy)-2H-chromene-3-carboxamide], in [1] (60 mg/kg once daily by oral gavage), the “tumor volume TGI” value worked out at 100%. The “weight loss in mice” value in [1] is “no significant weight loss”. Also, the IC50 in data set [2] fell in the range of 1 to 10 nM. For the same molecule, in data set [5] (KG-1 cells, 4 hours), the percent GSPT1 degradation at 0.2 µM was greater than 80%. Further, in data set [6] (iv, 2 mg/kg), the AUC(0-inf) was 17300 ± 1470 ng·h/mL, the AUC(0-t) was 17200 ± 1500 ng·h/mL, the C0 turned out to be 32100 ± 1550 ng/mL and the Vd stood at 0.14 L/kg. In [6] (iv, 2 mg/kg), the clearance turned out to be 1.9 ± 0.1 mL/min/kg and the half-life is 1.37 ± 0.04 h. In [6] (po, 10 mg/kg), the AUC(0-inf) stood at 7190 ng·h/mL; the AUC(0-t) came out at 8380 ± 1280 ng·h/mL; the highest concentration (Cmax) – broadly, the maximum level reached in the sampled fluid or tissue – was 2810 ± 1530 ng/mL; the Tmax is 0.66 ± 0.28 h. For the same molecule, in [6] (po, 10 mg/kg), the half-life was 1.71 h. In [6], the F is listed as 9.8±1.5% and the “exposure level relative to CC-90009” value is “four times”. Moreover, the “plasma drug exposure level relative to CC-90009” value in [6] (intravenous injection) is recorded as “fourteen times”. In data set [7], this molecule displayed a half-life of 3.11 h and an intrinsic metabolic clearance (microsomal CLint) of 7.43 µL/min/mg. Further, the “in vitro rat liver microsome metabolic half-life relative to CC-90009” value in [7] (ratio to the clinical drug CC-90009) is listed as “more than 2 times”.

Take `O=C1CCC(N2Cc3cc(CNC(=O)C(F)(F)c4ccc(Cl)cc4)ccc3C2=O)C(=O)N1` (centres unmarked) [CC-90009]: the half-maximal inhibitory concentration (IC50) in [2] fell in the range of 10 to 100 nM. Besides, the IC50 in data set [3] lay within 10 to 100 nM. In data set [4], this molecule showed an IC50 of 10 to 100 nM. The molecule also displayed a percent GSPT1 degradation at 0.2 µM in data set [5] (KG-1 cells, 4 hours) of 50 to 80%. In data set [9], this molecule returned a half-life of 1.29 h and a microsomal CLint of 17.9 µL/min/mg. In [10] (iv, 2 mg/kg), this molecule displayed an AUC(0-inf) of 1200 ± 304 ng·h/mL, an AUC(0-t) of 1200 ng·h/mL, a C0 of 1870 ± 492 ng/mL and a Vd of 2.85 ± 0.63 L/kg. In [10] (iv, 2 mg/kg), this molecule had a clearance of 28.8 ± 6.4 mL/min/kg and a half-life of 1.44 ± 0.26 h. Further, in data set [10] (po, 10 mg/kg), the AUC(0-inf) amounted to 1896 ± 14 ng·h/mL, the AUC(0-t) was determined as 1892 ± 12 ng·h/mL, the peak level (Cmax) was 616 ± 53 ng/mL and the Tmax worked out at 1.5 ± 0.71 h. The molecule further had a half-life in [10] (po, 10 mg/kg) of 2.91 ± 0.28 h. This molecule also registered a F in data set [11] of 31.2±9.1%. The same molecule registered an IC50 in data set [8] of 100 to 1000 nM.

The record behind these values is patent publication EP4703358A1, “BENZO SIX-MEMBERED HETEROCYCLIC GSPT1 PROTEIN DEGRADATION AGENT AND USE THEREOF” (China Pharmaceutical University, priority 2023, dated 2024).
